Patent US6207677A, “Piperidine derivatives having anxiolytic effect” (H. Lundbeck A/S, priority 1991, dated 2001)

Target: sigma receptors
Test: Inhibition of 3H-DTG binding to sigma receptors in rat brain in vitro
Conditions: 2 nM 3H-DTG, rat brain without cerebellum, 25° C., 20 min
Method: INHIBITION OF 3H-DTG BINDING TO SIGMA RECEPTORS IN RAT BRAIN IN VITRO
By this method the inhibition by drugs of the binding of 2 nM ^3 H-DTG (1,3,di-o-tolyl guanidine) to sigma receptors in homogenates or membranes from rat brain without cerebellum is determined in vitro as modified from Weber et al. Proc. Natl. Acad. Sci. 1986, 83,8784.
Homogenate: Rats (150-250 g) are decapitated and the brains (without cerebellum) quickly removed and placed on ice, weighed and homogenized in 100 vol ice-cold (0° C.) 50 mM Tris-buffer (pH 7.7) in an ethanol rinsed glass/teflon homogenizer at 0° C. and kept on ice until use.
P2-membranes: Brains are homogenized in 10 vol 0.32 M sucrose in an ethanol rinsed glass/teflon homogenizer with 10 strokes up and down. The homogenate is centrifuged for 10 min at 900×gm at 4° C. The supernatant is decanted and centrifuged for 20 min at 50,000 gm at 4° C. The resulting pellet is resuspended in 10 vol ice-cold […] Tris-buffer (pH 7.7) and incubated for 30 min. at 37° C. The membrane suspension is then centrifuged for further 20 min. at 50,000 gm at 4° C. The pellet is resuspended in 50 vol. of ice-cold Tris-buffer and used immediately.
0.5 ml 50 mM Tris-buffer (pH 7.7), 0.25 ml displacer (6×100 μM DTG, 6× [test compound], or Tris-buffer), and 0.25 ml 6×2 nM. ^3 H-DTG are mixed into 5 ml s plastic test tubes and kept at 4° C. until use. The binding reaction is initiated by mixing 0.5 ml tissue suspension into this solution and incubate at 25° C. for 20 min. Glass fiber filters (Whatman GF/B) are placed on the filter machine which is then closed tightly. Just before filtration vacuum is applied, and the filters washed with 0.1% PEI solution from a spray bottle followed by one wash with Tris-buffer.
The binding reaction is stopped by filtration of the assay mixture at reduced pressure (750 mbar) followed by further 3 washes with 5 ml ice-cold Tris-buffer. The filters are then placed in counting vials and 4 ml scintillation solution added. The vials are counted in a Beckmann scintillation counter.
50 mM Tris-buffer pH 7.7: 7.38 g Trizma--7.7 plus distilled H2 O ad 1 liter. 100 ml 10% polyethylenimine (PEI): 100 ml dest. H2 O is added to approx. 20 g 50% PEI which is solubilized by stirring and heating. Diluted (1+99) before use. 6×2 nM ^3 H-DTG: The exact volume depends on the actual concentration of the batch, but is made as close as possible to 12 nM. The containers for the radioactive solution is rinsed in 96% ethanol before use.
^3 H-DTG was obtained from NEN Research Products, Du Pont Denmark. Specific activity 62.3 Ci/mmol.
The known sigma receptor ligands BMY 14802 and rimcazole were included in the test for comparison purposes.

Row | Compound | IC50
1 | 1'-[3-(2,3-Dihydro-5-fluoro-benzofuran-3-yl)-1-butyl]-spiro[isobenzofuran-1(3H),4'-piperidine] [Compound 11b] | 0.63 nM
2 | CCCCCN1CCC2(CC1)OCc1ccccc12 [Compound 1b, 1'-Pentylspiro[isobenzofuran-1(3H),4'-piperidine]] | 3.7 nM
3 | c1ccc(CCCCN2CCC3(CC2)OCc2ccccc23)cc1 [Compound 2a, 1'-(4-Phenyl-1-butyl)spiro[isobenzofuran-1(3H),4'-piperidine]] | 0.25 nM
4 | Fc1ccc2[nH]cc(CCCCN3CCC4(CC3)OCc3ccccc34)c2c1 [Compound 2aa] | 0.3 nM
5 | c1ccc2c(c1)COC21CCN(CCCCC2CCCCC2)CC1 [Compound 2b, 1'-(4-Cyclohexyl-1-butyl)spiro[isobenzofuran-1(3H), 4'-piperidine)] | 0.07 nM
6 | Cn1cc(CCCCN2CCC3(CC2)OCc2ccccc23)c2ccccc21 [Compound 2bb, 1'-[4-(1-Methyl-3-indolyl)-1-butyl]-spiro[isobenzofuran-1(3H),4'-piperidine]] | 0.3 nM
7 | c1ccc(CCCCN2CCC3(CCc4ccccc43)CC2)cc1 [Compound 2c, 2,3-Dihydro-1'-(4-phenyl-1-butyl)spiro[1H-indene-1,4'-piperidine]] | 0.51 nM
8 | c1ccc(C2CCN(CCCCc3c[nH]c4ccccc34)CC2)cc1 [Compound 2cc, 3-[4-(4-Phenyl-1-piperidyl)-1-butyl]indole] | 1.1 nM
9 | c1ccc(CCCCN2CCC3(CC2)SCc2ccccc23)cc1 [Compound 2d, 1'-(4-Phenyl-1-butyl)spiro[benzo[c]thiophene-1(3H),4'-piperidine]] | 0.77 nM
10 | Clc1ccc(C2CCN(CCCCc3c[nH]c4ccccc34)CC2)cc1Cl [Compound 2dd, 3-[4-(4-(3,4-Dichlorophenyl)-1-piperidyl)-1-butyl]indole] | 1.7 nM
11 | c1ccc(CCCCN2CCC3(CCCc4ccccc43)CC2)cc1 [Compound 2e, 3,4-Dihydro-1'-(4-phenyl-1-butyl)spiro[naphtalene-1(2H),4'-piperidine]] | 1.2 nM
12 | Fc1ccc(C2CCN(CCCCc3c[nH]c4cc(Cl)c(Cl)cc34)CC2)cc1 [Compound 2ee, 5,6-Dichloro-3-[4-(4-(4-fluorophenyl)-1-piperidyl)-1-butyl]-indole] | 1 nM
13 | c1ccc(CCCCN2CCC3(CC2)COCc2ccccc23)cc1 [Compound 2f] | 0.95 nM
14 | Fc1ccc(C2CCN(CCCCCCc3c[nH]c4ccccc34)CC2)cc1 [Compound 2ff, 3-[6-(4-(4-Fluorophenyl)-1-piperidinyl)-1-hexyl]indole] | 0.43 nM
15 | c1ccc(CCCCN2CCC3(CC2)Cc2ccccc2CO3)cc1 [Compound 2g, 1,4-Dihydro-1'-(4-phenyl-1-butyl)spiro[3H-2-benzopyran-3,4'-piperidine]] | 0.36 nM
16 | COc1ccccc1C1CCN(CCCCc2c[nH]c3ccccc23)CC1 [Compound 2gg, 3-[4-(4-(2-Methoxyphenyl)-1-piperidinyl)-1-butyl]indol] | 3.3 nM
17 | c1ccc(CCCCN2CCC3(CCc4ccccc4O3)CC2)cc1 [Compound 2h, 3,4-Dihydro-1'-(4-phenyl-1-butyl)spiro[2H-1-benzopyran-2,4'-piperidine]] | 1.4 nM
18 | c1ccc(Cn2cc(CCCCN3CCC4(CC3)OCc3ccccc34)c3ccccc32)cc1 [Compound 2hh, 1'-[4-(1-Benzyl-3-indolyl)-1-butyl]-spiro[isobenzofuran-1(3h),4'-piperidine]] | 0.02 nM
19 | C1=CC2(CCN(CCCCc3ccccc3)CC2)Oc2ccccc21 [Compound 2i, 1'-(4-Phenyl-1-butyl)spiro[2H-1-benzopyran-2,4'-piperidine]] | 4.3 nM
20 | O=C1Nc2ccccc2C1CCCCN1CCC(c2ccc(F)cc2)CC1 (centres unmarked) [Compound 2ii, 3-[4-(4-(4-Fluorophenyl)-1-piperidyl)-1-butyl]indol-2-one] | 5.8 nM
21 | c1ccc2c(c1)COC21CCN(CCCOC2CCCCC2)CC1 [Compound 2j, 1'-(3-Cyclohexyloxy-1-propyl)spiro[isobenzofuran-1(3H),4'-piperidine]] | 0.07 nM

Row | Compound | IC50
22 | Fc1ccc2c(c1)C1(CCN(CCCCc3c[nH]c4ccccc34)CC1)OC2 [Compound 2jj, 6-Fluoro-1'-(4-(3-indolyl)-1-butyl)spiro[isobenzofuran-1(3H),4'-piperidine]] | 1.4 nM
23 | c1ccc(OCCCN2CCC3(CC2)OCc2ccccc23)cc1 [Compound 2k, 1'-(3-Phenoxy-1-propyl)spiro[isobenzofuran-1(3H),4'-piperidine]] | 0.19 nM
24 | c1ccc(OCCCN2CCC3(CC2)Cc2ccccc2CO3)cc1 [Compound 2l, 1'-(3-Phenoxy-1-propyl)spiro[3H-2-benzopyran-3,4'-piperidine]] | 3.8 nM
25 | CSCCCN1CCC2(CC1)OCc1ccccc12 [Compound 2n, 1'-(3-Methylthio-1-propyl)spiro[isobenzofuran-1(3H),4'-piperidine]] | 6 nM
26 | c1ccc(SCCCN2CCC3(CC2)OCc2ccccc23)cc1 [Compound 2p, 1'-(3-Phenylthio-1-propyl)spiro[isobenzofuran-1(3H),4'-piperidine]] | 0.32 nM
27 | O=S(=O)(CCCN1CCC2(CC1)OCc1ccccc12)C1CCCCC1 [Compound 2r, 1'-(3-Cyclohexylsulfonyl-1-propyl)spiro[isobenzofuran-1(3H),4'-piperidine]] | 3 nM
28 | O=S(=O)(CCCN1CCC2(CC1)OCc1ccccc12)c1ccccc1 [Compound 2s, 1'-(3-Phenylsulfonyl-1-propyl)spiro[isobenzofuran-1 (3H),4'-piperidine]] | 3.1 nM
29 | c1ccc(CCCCN2C3CCC2CC2(C3)OCc3ccccc32)cc1 (centres unmarked) [Compound 2t, 8'-(4-Phenyl-1-butyl)spiro[isobenzofuran-1(3H),3'-8-azabicyclo[3,2,1]octane]] | 5.4 nM
30 | c1ccc2c(c1)COC21CCN(CCCCc2c[nH]c3ccccc23)CC1 [Compound 2u, 1'-[4-(3-Indolyl)-1-butyl]-spiro[isobenzofuran-1(3H),4'-piperidine]] | 0.41 nM
31 | c1ccc2c(c1)COCC21CCN(CCCCc2c[nH]c3ccccc23)CC1 [Compound 2v, 1'-[4-(3-Indolyl)-1-butyl]-spiro[1H-2-benzopyran-4(3H),4'-piperidine]] | 1.8 nM
32 | c1ccc2c(c1)COCC21CCN(CCCCCc2c[nH]c3ccccc23)CC1 [Compound 2x, 1'-[5-(3-Indolyl)-1-pentyl]-spiro[1H-2-benzopyran-4(3H),4'-piperidine]] | 1.6 nM
33 | c1ccc2c(c1)COCC21CCN(CCCCCCc2c[nH]c3ccccc23)CC1 [Compound 2y, 1'-[6-(3-Indolyl)-1-hexyl]-spiro[1H-2-benzopyran-4(3H),4'-piperidine]] | 0.84 nM
34 | Clc1cc2[nH]cc(CCCCN3CCC4(CC3)OCc3ccccc34)c2cc1Cl [Compound 2z, 1'-[4-(5,6-Dichloro-3-indolyl)-1-butyl]-spiro[isobenzofuranr-1(3H) ,4'-piperidine]] | 1.5 nM
35 | O=C1N(CCCCN2CCC3(CC2)OCc2ccccc23)CCN1C1CCCCC1 [Compound 3a, 1'-(4-(3-Cyclohexylimidazolidin-2-on-1-yl)-1-butyl)spiro[isobenzofuran-1 (3H), 4'-piperidine]] | 2.2 nM
36 | O=C1N(CCN2CCC3(CC2)OCc2ccccc23)CCN1c1ccccc1 [Compound 3b] | 4.8 nM
37 | O=C1N(CCCN2CCC3(CC2)OCc2ccccc23)CCN1c1ccccc1 [Compound 3c] | 1 nM
38 | O=C1N(CCN2CCC3(CC2)OCc2ccccc23)CCN1C1CCCCC1 [Compound 3d, 1'-(2-(3-Cyclohexylimidazolidin-2-on-1-yl)-1-ethyl)spiro[isobenzofuran-1(3H),4'-piperidine)] | 7.3 nM
39 | CCCN1CCC2(CC1)OCc1ccccc12 [Compound 4a, 1'-Propyl-spiro[isobenzofuran-1(3H),4'-piperidine]] | 23 nM
40 | CC(C)CCCCN1CCC2(CC1)OCc1ccccc12 [Compound 4b, 1'-(5-Methyl-1-hexyl)-spiro[isobenzofuran-1(3H),4'-piperidine)] | 0.53 nM
41 | c1ccc(CCN2CCC3(CC2)OCc2ccccc23)cc1 [Compound 4c, 1'-(2-Phenyl-1-ethyl)-spiro[isobenzofuran-1(3h),4'-piperidine]] | 2.9 nM
